In the NIST ThermoML archive (doi:10.1016/j.fluid.2014.11.020):
± gives the expanded uncertainty stated by the source.

Assay: activity coefficient (dimensionless); of the first substance listed, at infinite dilution; xn = mol fraction of the nth substance listed
Conditions: Liquid, Chromatography, x1 = 0

CCCC(C)=O [pentan-2-one] + CCCCCCCCn1cc[n+](COCCCOC[n+]2ccn(CCCCCCCC)c2C)c1C.N#C[N-]C#N.N#C[N-]C#N
activity coefficient (323.15 K): 0.8 ± 0.05
activity coefficient (333.15 K): 0.8 ± 0.05
activity coefficient (343.15 K): 0.81 ± 0.05

CCCC(C)=O [pentan-2-one] + CCCCCCCCn1cc[n+](COCCCOC[n+]2ccn(CCCCCCCC)c2C)c1C.O=S(=O)([N-]S(=O)(=O)C(F)(F)F)C(F)(F)F.O=S(=O)([N-]S(=O)(=O)C(F)(F)F)C(F)(F)F
activity coefficient (323.15 K): 0.29 ± 0.03
activity coefficient (333.15 K): 0.29 ± 0.03
activity coefficient (343.15 K): 0.3 ± 0.03

CCCC(C)=O [pentan-2-one] + CCCOC[n+]1ccc(N(C)C)cc1.O=S(=O)([N-]S(=O)(=O)C(F)(F)F)C(F)(F)F
activity coefficient (323.15 K): 0.75 ± 0.05
activity coefficient (333.15 K): 0.78 ± 0.05
activity coefficient (343.15 K): 0.78 ± 0.05

CCCC(C)=O [pentan-2-one] + CCCOC[n+]1ccn(C)c1.F[B-](F)(F)F
activity coefficient (323.15 K): 3.32 ± 0.23
activity coefficient (333.15 K): 3.33 ± 0.23
activity coefficient (343.15 K): 3.31 ± 0.23

CCCC(C)=O [pentan-2-one] + CCCOC[n+]1ccn(C)c1.N#C[N-]C#N
activity coefficient (323.15 K): 2.24 ± 0.15
activity coefficient (333.15 K): 2.27 ± 0.15
activity coefficient (343.15 K): 2.32 ± 0.16

CCCC(C)=O [pentan-2-one] + CCCOC[n+]1ccn(C)c1.O=S(=O)([N-]S(=O)(=O)C(F)(F)F)C(F)(F)F
activity coefficient (323.15 K): 0.72 ± 0.05
activity coefficient (333.15 K): 0.72 ± 0.05
activity coefficient (343.15 K): 0.73 ± 0.05

CCCC(C)=O [pentan-2-one] + CCCOC[n+]1ccn(Cc2ccccc2)c1.F[B-](F)(F)F
activity coefficient (323.15 K): 1.79 ± 0.12
activity coefficient (333.15 K): 1.76 ± 0.12
activity coefficient (343.15 K): 1.82 ± 0.12

CCCC(C)=O [pentan-2-one] + CCCOC[n+]1ccn(Cc2ccccc2)c1.N#C[N-]C#N
activity coefficient (323.15 K): 1.45 ± 0.1
activity coefficient (333.15 K): 1.51 ± 0.1
activity coefficient (343.15 K): 1.51 ± 0.1

CCCC(C)=O [pentan-2-one] + CCCOC[n+]1ccn(Cc2ccccc2)c1.O=S(=O)([N-]S(=O)(=O)C(F)(F)F)C(F)(F)F
activity coefficient (323.15 K): 0.46 ± 0.04
activity coefficient (333.15 K): 0.42 ± 0.04
activity coefficient (343.15 K): 0.4 ± 0.03

CCCC(C)=O [pentan-2-one] + CN(C)c1cc[n+](COCCCOC[n+]2ccc(N(C)C)cc2)cc1.O=S(=O)([N-]S(=O)(=O)C(F)(F)F)C(F)(F)F.O=S(=O)([N-]S(=O)(=O)C(F)(F)F)C(F)(F)F
activity coefficient (323.15 K): 0.69 ± 0.05
activity coefficient (333.15 K): 0.7 ± 0.05
activity coefficient (343.15 K): 0.71 ± 0.05

CCCC(C)=O [pentan-2-one] + Cn1cc[n+](COCCCOC[n+]2ccn(C)c2)c1.N#C[N-]C#N.N#C[N-]C#N
activity coefficient (323.15 K): 3.5 ± 0.24
activity coefficient (333.15 K): 3.5 ± 0.24
activity coefficient (343.15 K): 3.49 ± 0.24

CCCC(C)=O [pentan-2-one] + Cn1cc[n+](COCCCOC[n+]2ccn(C)c2)c1.O=S(=O)([N-]S(=O)(=O)C(F)(F)F)C(F)(F)F.O=S(=O)([N-]S(=O)(=O)C(F)(F)F)C(F)(F)F
activity coefficient (323.15 K): 0.62 ± 0.04
activity coefficient (333.15 K): 0.65 ± 0.04
activity coefficient (343.15 K): 0.63 ± 0.04

CCCC(C)=O [pentan-2-one] + N#C[N-]C#N.N#C[N-]C#N.c1ccc(Cn2cc[n+](COCCCOC[n+]3ccn(Cc4ccccc4)c3)c2)cc1
activity coefficient (323.15 K): 3.1 ± 0.21
activity coefficient (333.15 K): 3.05 ± 0.21
activity coefficient (343.15 K): 3.08 ± 0.21

CCC(=O)CC [pentan-3-one] + CCCCCCCCn1cc[n+](COCCC)c1C.N#C[N-]C#N
activity coefficient (323.15 K): 0.88 ± 0.06
activity coefficient (333.15 K): 0.89 ± 0.06
activity coefficient (343.15 K): 0.91 ± 0.06

CCC(=O)CC [pentan-3-one] + CCCCCCCCn1cc[n+](COCCC)c1C.O=S(=O)([N-]S(=O)(=O)C(F)(F)F)C(F)(F)F
activity coefficient (323.15 K): 0.45 ± 0.04
activity coefficient (333.15 K): 0.45 ± 0.04
activity coefficient (343.15 K): 0.47 ± 0.04

CCC(=O)CC [pentan-3-one] + CCCCCCCCn1cc[n+](COCCCOC[n+]2ccn(CCCCCCCC)c2C)c1C.N#C[N-]C#N.N#C[N-]C#N
activity coefficient (323.15 K): 0.75 ± 0.05
activity coefficient (333.15 K): 0.76 ± 0.05
activity coefficient (343.15 K): 0.78 ± 0.05

CCC(=O)CC [pentan-3-one] + CCCCCCCCn1cc[n+](COCCCOC[n+]2ccn(CCCCCCCC)c2C)c1C.O=S(=O)([N-]S(=O)(=O)C(F)(F)F)C(F)(F)F.O=S(=O)([N-]S(=O)(=O)C(F)(F)F)C(F)(F)F
activity coefficient (323.15 K): 0.28 ± 0.03
activity coefficient (333.15 K): 0.28 ± 0.03
activity coefficient (343.15 K): 0.29 ± 0.03
